Measurements: BindingDB's records for patent US20250154134 (Wigen Biomedicine Technology (Shanghai), 2025)

What follows are molecules tested against Focal adhesion kinase 1 (Homo sapiens, UniProt Q05397) (assay: Inhibitory Activity Assay).
Focal adhesion kinase 1, sequence (Q05397 whole entry): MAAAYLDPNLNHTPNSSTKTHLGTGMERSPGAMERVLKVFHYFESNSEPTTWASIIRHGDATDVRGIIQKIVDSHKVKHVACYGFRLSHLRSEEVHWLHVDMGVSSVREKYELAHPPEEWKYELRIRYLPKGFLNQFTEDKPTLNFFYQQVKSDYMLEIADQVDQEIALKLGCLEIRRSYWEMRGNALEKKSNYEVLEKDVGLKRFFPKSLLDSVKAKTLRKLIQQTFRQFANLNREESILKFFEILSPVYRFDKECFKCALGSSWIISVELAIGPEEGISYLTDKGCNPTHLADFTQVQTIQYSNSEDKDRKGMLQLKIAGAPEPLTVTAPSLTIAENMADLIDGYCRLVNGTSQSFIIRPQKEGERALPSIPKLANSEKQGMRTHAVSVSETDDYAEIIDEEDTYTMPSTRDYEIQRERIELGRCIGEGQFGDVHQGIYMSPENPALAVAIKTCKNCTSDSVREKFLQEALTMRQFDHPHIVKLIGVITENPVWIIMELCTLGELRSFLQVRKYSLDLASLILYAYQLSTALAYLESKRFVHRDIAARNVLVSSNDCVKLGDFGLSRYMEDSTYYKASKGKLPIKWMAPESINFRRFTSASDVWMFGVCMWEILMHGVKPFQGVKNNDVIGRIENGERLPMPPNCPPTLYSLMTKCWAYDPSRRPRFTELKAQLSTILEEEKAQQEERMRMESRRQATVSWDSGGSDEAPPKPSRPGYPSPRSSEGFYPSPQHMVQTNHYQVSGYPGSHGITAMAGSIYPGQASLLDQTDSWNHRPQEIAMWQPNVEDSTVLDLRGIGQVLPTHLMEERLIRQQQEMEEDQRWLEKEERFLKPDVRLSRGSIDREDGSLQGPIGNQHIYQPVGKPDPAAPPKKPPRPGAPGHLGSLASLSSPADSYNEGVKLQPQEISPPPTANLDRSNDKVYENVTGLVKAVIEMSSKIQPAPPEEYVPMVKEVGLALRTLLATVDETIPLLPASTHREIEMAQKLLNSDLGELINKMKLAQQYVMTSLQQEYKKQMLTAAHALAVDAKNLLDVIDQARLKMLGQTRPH
Description: A compound serially diluted with DMSO was mixed with a FAK recombinant protein. After the mixture was left to stand at room temperature for 10 min, a biotin-labeled TK substrate (TK) and ATP were added. […] The inhibition percentage and IC50 of the compound were calculated compared to the DMSO control group.
For `COc1cc(C(=O)NC2CCN(C)CC2)ccc1Nc1ncc(C(F)(F)F)c(Oc2cccc3c2C(=O)N(C)C32CC2)n1` [US20250154134, Compound 3], the IC50 was under 20 nM.
`COc1cc(C(=O)NC2CCNCC2)ccc1Nc1ncc(C(F)(F)F)c(Oc2cccc3c2C(=O)N(C)C32CC2)n1` [US20250154134, Compound 35] showed an IC50 of under 20 nM.
With `COc1cc(C(=O)NC2(C)CCN(C)CC2)ccc1Nc1ncc(Cl)c(Oc2cccc3c2C(=O)N(C)C32CC2)n1` [US20250154134, Compound 118] the IC50 was under 20 nM.
`COc1cc(C(=O)NC2CCN(C)CC2)c(F)cc1Nc1ncc(Cl)c(Oc2cccc3c2C(=O)N(C)C32CCCC2)n1` [US20250154134, Compound 209] was tested, and the IC50 was under 20 nM.
